# Assay results as given in publication PMC11767309 (Molecules, 2025).
# Assays:
# [1] = target: T1, butyrylcholinesterase (BChE) (Equus caballus, UniProt P81908); experiment: biochemical; design: species or system equine; conditions: for IC50: BChE IC50 (μM)
# T1 construct: butyrylcholinesterase (BChE, E.C. from equine serum); purchased Sigma Aldrich (St. Louis, MO, USA); host or cells: equine serum
# [2] = target: T2, acetylcholinesterase (AChE) (Electrophorus electricus, UniProt O42275); experiment: biochemical; design: species or system electric eel; conditions: read-out: AChE Inhibition (%)
# T2 construct: purchased Sigma Aldrich (St. Louis, MO, USA)
# T2 sequence (O42275 24-633): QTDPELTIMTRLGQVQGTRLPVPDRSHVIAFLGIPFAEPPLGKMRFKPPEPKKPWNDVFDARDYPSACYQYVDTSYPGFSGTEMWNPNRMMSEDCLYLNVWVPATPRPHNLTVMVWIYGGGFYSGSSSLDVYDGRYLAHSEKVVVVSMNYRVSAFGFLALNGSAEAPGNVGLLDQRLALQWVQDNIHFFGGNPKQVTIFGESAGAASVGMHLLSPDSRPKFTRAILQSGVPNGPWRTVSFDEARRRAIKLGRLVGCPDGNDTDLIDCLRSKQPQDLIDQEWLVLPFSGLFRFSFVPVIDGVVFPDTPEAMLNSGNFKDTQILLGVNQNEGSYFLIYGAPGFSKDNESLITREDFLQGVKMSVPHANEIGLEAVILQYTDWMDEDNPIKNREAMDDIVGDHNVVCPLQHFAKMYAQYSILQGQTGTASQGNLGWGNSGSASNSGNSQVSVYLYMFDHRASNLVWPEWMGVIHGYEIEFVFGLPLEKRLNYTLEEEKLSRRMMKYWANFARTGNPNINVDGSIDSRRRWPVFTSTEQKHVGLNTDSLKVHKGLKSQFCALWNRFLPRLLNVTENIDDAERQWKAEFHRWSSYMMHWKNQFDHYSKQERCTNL
# [3] = Complex formation with Fe^3+, spectrophotometric titration; type: physicochemical; conditions: for Molar absorptivities at the longer-wavelength band maxima, ε: free ligand; for absorbance vs. ligand concentration plot: titration at constant Fe(III) content; for absorptivity of the complex higher than that of the ligand / molar absorptivity of the complex formed: complex with Fe^3+; for molar absorptivity of the complex formed: slope of absorbance vs. ligand concentration plot
# Procedure: For this purpose, the following compounds were selected: 1, 3, 6 and 7. The Fe^3+ ions strongly hydrolyze, decreasing the pH of the aqueous system; thus, acidic solutions were used to study the possible complex formation via spectrophotometric titrations.
# The absorption spectra used to determine the molar absorptivity and to evaluate the complex formation constant were recorded with a Specord S600 spectrophotometer (Analytic Jena GmbH, Jena, Germany) in the 190–900 nm wavelength range. During the titration, the ligand concentration was increased at a constant Fe(III) content.
# [4] = tested on: BChE; conditions: selectivity BChE over AChE; cited from earlier work
# T1 sequence (P81908 whole entry): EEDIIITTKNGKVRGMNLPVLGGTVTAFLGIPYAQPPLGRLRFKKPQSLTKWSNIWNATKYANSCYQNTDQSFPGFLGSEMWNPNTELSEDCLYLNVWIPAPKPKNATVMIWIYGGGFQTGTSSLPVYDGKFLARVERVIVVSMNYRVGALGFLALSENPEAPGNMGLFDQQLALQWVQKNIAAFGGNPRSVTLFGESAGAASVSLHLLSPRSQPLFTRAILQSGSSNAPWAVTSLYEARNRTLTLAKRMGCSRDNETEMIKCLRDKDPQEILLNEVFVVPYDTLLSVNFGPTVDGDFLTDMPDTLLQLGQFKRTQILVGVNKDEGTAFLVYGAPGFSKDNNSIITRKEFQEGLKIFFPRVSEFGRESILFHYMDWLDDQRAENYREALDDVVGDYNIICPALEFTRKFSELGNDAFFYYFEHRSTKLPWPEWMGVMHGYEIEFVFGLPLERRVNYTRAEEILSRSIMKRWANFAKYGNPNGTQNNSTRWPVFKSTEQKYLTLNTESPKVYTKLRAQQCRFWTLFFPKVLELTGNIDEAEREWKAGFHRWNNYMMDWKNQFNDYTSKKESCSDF
Compound,IC50 [1],inhibition at 100 µM [2],inhibition at 100 µM ([1]; read-out: BChE Inhibition (%)),other results
"CN(C)C(=O)Oc1ccccc1/C=C/c1cccs1 [Compound 1, (E)-2-(2-(thiophen-2-yl)vinyl)phenyl dimethylcarbamate]",0.12 ± 0.09 µM,30%,–,"inhibition at 50 µM ([1]; read-out: BChE Inhibition (%)): 85%; Molar absorptivities at the longer-wavelength band maxima, ε [3]: 22,570 M^–1cm^–1; absorbance vs. ligand concentration plot [3]: no deviation from the straight line"
"Cc1ccc(OC(=O)N(C)C)c(/C=C/c2cccs2)c1 [Compound 2, (E)-4-methyl-2-(2-(thiophen-2-yl)vinyl)phenyl dimethylcarbamate]",1.05 ± 0.09 µM,16.7%,–,inhibition at 10 µM ([1]; read-out: BChE Inhibition (%)): 85%
"CN(C)C(=O)Oc1ccc(F)cc1/C=C/c1cccs1 [Compound 3, (E)-4-fluoro-2-(2-(thiophen-2-yl)vinyl)phenyl dimethylcarbamate]",1.48 ± 0.36 µM,12.6%,85%,"absorptivity of the complex higher than that of the ligand [3]: about 26%; molar absorptivity of the complex formed [3]: 13,200 M^−1 cm^−1; Molar absorptivities at the longer-wavelength band maxima, ε [3]: 10,440 M^–1cm^–1"
"CN(C)C(=O)Oc1ccc(Cl)cc1/C=C/c1cccs1 [Compound 4, (E)-4-chloro-2-(2-(thiophen-2-yl)vinyl)phenyl dimethylcarbamate]",2.83 ± 0.03 µM,35%,–,inhibition at 25 µM ([1]; read-out: BChE Inhibition (%)): 85.3%
"COc1ccc(OC(=O)N(C)C)c(/C=C/c2cccs2)c1 [Compound 5, (E)-4-methoxy-2-(2-(thiophen-2-yl)vinyl)phenyl dimethylcarbamate]",11.6 ± 0.18 µM,11%,84%,–
"COc1ccc(/C=C/c2cccs2)c(OC(=O)N(C)C)c1 [Compound 6, (E)-5-methoxy-2-(2-(thiophen-2-yl)vinyl)phenyl dimethylcarbamate]",0.9 ± 0.14 µM,1%,–,"inhibition at 25 µM ([1]; read-out: BChE Inhibition (%)): 84.4%; absorptivity of the complex higher than that of the ligand [3]: ca. 64%; molar absorptivity of the complex formed [3]: about 26,700 M^−1 cm^−1; Molar absorptivities at the longer-wavelength band maxima, ε [3]: 16,330 M^–1cm^–1"
"Cc1ccc(/C=C/c2ccccc2OC(=O)N(C)C)s1 [Compound 7, (E)-2-(2-(5-methylthiophen-2-yl)vinyl)phenyl dimethylcarbamate]",0.38 ± 0.01 µM,17.7%,–,"inhibition at 25 µM ([1]; read-out: BChE Inhibition (%)): 86.3%; Molar absorptivities at the longer-wavelength band maxima, ε [3]: 19,410 M^–1cm^–1; absorbance vs. ligand concentration plot [3]: no deviation from the straight line"
"Cc1ccc(OC(=O)N(C)C)c(/C=C/c2ccc(C)s2)c1 [Compound 8, (E)-4-methyl-2-(2-(5-methylthiophen-2-yl)vinyl)phenyl dimethylcarbamate]",25.5 ± 0.21 µM,25.2%,72.5%,–
"Cc1ccc(/C=C/c2cc(F)ccc2OC(=O)N(C)C)s1 [Compound 9, (E)-4-fluoro-2-(2-(5-methylthiophen-2-yl)vinyl)phenyl dimethylcarbamate]",15 ± 2.32 µM,23.6%,85.2%,–
"Cc1ccc(/C=C/c2cc(Cl)ccc2OC(=O)N(C)C)s1 [Compound 10, (E)-4-chloro-2-(2-(5-methylthiophen-2-yl)vinyl)phenyl dimethylcarbamate]",23.2 ± 3.78 µM,27%,85.7%,–
"CN(C)C(=O)Oc1cccc(/C=C/c2cccs2)c1 [Compound 11, (E)-3-(2-(thiophen-2-yl)vinyl)phenyl dimethylcarbamate]",11.4 ± 2.48 µM,19%,83.4%,–
"Cc1cnc(/C=C/c2cc(F)ccc2OC(=O)N(C)C)s1 [Compound 12, (E)-4-fluoro-2-(2-(5-methylthiazol-2-yl)vinyl)phenyl dimethylcarbamate]",23.4 ± 2.43 µM,23.9%,81.4%,–
"Cc1cnc(/C=C/c2cc(Cl)ccc2OC(=O)N(C)C)s1 [Compound 13, (E)-4-chloro-2-(2-(5-methylthiazol-2-yl)vinyl)phenyl dimethylcarbamate]",3.77 ± 0.13 µM,37.5%,–,inhibition at 50 µM ([1]; read-out: BChE Inhibition (%)): 84.1%
cymserine,–,–,–,more effective as a BChE inhibitor compared to AChE [4]: 15 times
